Data reported in patent US7399492B2, “Composition and method for issue repair and regeneration” (priority 2001, dated 2008).

Experiments:
[1] = test system: Salmonella strain TA102 base substitutive mutation strain; format: cell-based; settings: Positive Control/plate
Procedure: To test mutagenicity of the content of GI Capsules, Ames tests were conducted on four Salmonella strains: TA97a, TA98 frameshift mutation strain, TA100, and TA102 base substitutive mutation strain. Ames (1983) Mutation Research 113:173-215. Five genetic characteristics of these four strains were determined to meet the requirement for the testing. The content of GI Capsules at five concentrations was tested: 5 mg/plate, 2.5 mg/plate, 1.0 mg/plate, 0.5 mg/plate, 0.1 mg/plate. The negative control was PBS. […]

Kunming mice [2] = settings: positive control 35 mg/kg
Kunming mice [3] = settings: positive control 35 mg/kg; remark: listed apart in the source
Salmonella strain TA100 = assay: Ames test, strain TA100; format: cell-based; settings: Positive Control/plate, 2 ul
[4] = Body weight of mice in the laxative study; format: in vivo, mouse; settings: Positive control group (diphenoxylate 50 mg/kg BW)
Procedure: (§1) The content of GI Capsules was tested for laxative effects, i.e., the effects of the loosening the bowels to relieve constipation, on mouse models for constipation. Healthy Kunming mice were divided randomly into 5 groups, 20 in each group. […] The negative control group consists of 20 mice fed normally and the positive control group 20 mice fed with diphenoxylate at 50 mg/kg BW.
(§2) The test samples were diluted with distilled water into required concentrations and volume of 0.1 ml/10 g BW, and continuously administrated to the mice by oral gavage once a day for 14 days. The mice were fed with normal food during this period. On the last day of administration, mice were kept on fast for 24 hours overnight, but water was given. Then the content of GI Capsules were administered to mice in the three dosage groups by oral gavage. Twenty minutes later, diphenoxylate (50 mg/kg) was administered to all animals except those in the negative control group at the dosage of 0.1 ml/10 g. Ten minutes later, carbon ink (5% carbo activatus, 10% Arabic gum) was administered to all animals by oral gavage at the dosage of […]. All animals in each group were divided into two subgroups, 10 mice in each subgroup. One subgroup in each group was kept for observation of their dejection for 24 hours. The other was killed twenty minutes later and cut open the belly to measure the length of small intestine and the distance between pylorus and the front line of carbon ink to calculate carbon moving rates.

[5] = test system: Kunming mice constipated by diphenoxylate; assay: Laxative effects on mouse models for constipation (diphenoxylate); format: in vivo; settings: Positive control group, diphenoxylate 50 mg/kg alone
Procedure: as §1, §2

SMILES: Nc1ccc2cc3ccccc3cc2c1 [2-AA]
- Ames mutation data TA102 +S9 ([1]; 12 ug): 1411.00

SMILES: O=P1(N(CCCl)CCCl)NCCCO1 (stereo not shown) [CP, cyclophosphamide]
- Micronucleus rate, Female (Kunming mice [2]; female mice): 21.2 ± 2.28 ‰
- Micronucleus PCE, Female (Kunming mice [2]; female mice, of 5000 PCE): 106
- Micronucleus rate, Male (Kunming mice [2]; male mice): 20.6 ± 2.41 ‰
- Micronucleus PCE, Male (Kunming mice [2]; male mice, of 5000 PCE): 103
- Aberration rate (Kunming mice [3]): 20.80 ± 0.98%
- Aberrant sperm (Kunming mice [3]; 10 mice, of 10000 sperm): 2080

SMILES: COS(C)(=O)=O [MMS]
- Ames mutation data TA102 −S9 ([1]; 2 ul): 2960.00
- Ames mutation data TA100 −S9 (Salmonella strain TA100): 1460.00

SMILES: CCOC(=O)C1(c2ccccc2)CCN(CCC(C#N)(c2ccccc2)c2ccccc2)CC1 [diphenoxylate]
- Weight 0th day [4]: 19.5 ± 1.2
- Weight 7th day [4]: 25.3 ± 0.9
- Weight 14th day [4]: 29.2 ± 1.4
- Carbon moving rate [5]: 33.2 ± 10.5%
- First dejection time [5]: 230.6 ± 56.0 min
- Total amounts of dejection ([5]; 24 hours observation): 1.0 ± 0.2 g
- Weight Dung grain ([5]; 24 hours observation): 16.4 ± 3.6 grain
